Laboratory results taken from patent publication US20170312253A1 (The Third Affiliated Hospital, Third Military Medical …, priority 2014, published 2017).

How the values were obtained:
Aβ42 = Aβ42 (Homo sapiens, UniProt P05067); experiment: Thioflavin T fluorescence test, inhibition of Aβ aggregation; assay type: biochemical; conditions: 10 μM Aβ 42, Edaravone 0-100 μM, 37° C., two days
Aβ fibers (Aβ 42) = Aβ fibers (Aβ 42) (Homo sapiens, UniProt P05067); experiment: Thioflavin T fluorescence test, disaggregation of Aβ fibers; assay type: biochemical; conditions: preformed Aβ fibers, Edaravone 0-100 μM, three days
SH-SY5Y cells [1] = experiment: MTT cell viability assay, Aβ-treated SH-SY5Y cells; assay type: cell-based; conditions: 1 μM Aβ oligomers, 24 h, dose-dependent
Protocol: (§1) The SH-SY5Y cell line was purchased from the Peking Union Hospital Cell Bank, cultured in a humidified incubator under 5% CO2 and 37° C., A MTT cell viability assay was performed according to the instructions in the kit (Sigma). […] The optical density values were determined at a wavelength of 563 nm (Synergy H4, Bio Tek). The neurite growth test was performed according to the method described in the prior documents (see, for example, Wang, Y. J., et al., Effects of proNGF on neuronal viability, neurite growth and amyloid-beta metabolism. Neurotox Res, 2010, 17(3): p. 257-67).

SH-SY5Y cells [2] = experiment: Neurite growth detection, Aβ-treated SH-SY5Y cells; assay type: cell-based; conditions: 1 μM Aβ, 24 h
Protocol: as §1

[3] = tested on: APPswe/PS1DE9 (AD) transgenic mice; experiment: Morris water maze; assay type: in vivo; conditions: prophylactic and therapeutic test, vs control group
Protocol: APPswe/PS1DE9 (AD) transgenic mice were purchased from Jackson Laboratory, USA (No. 005864), raised in the SPF grade animal house of The Third Affiliated Hospital of The Third Military Medical University. All the processes and correlated experiments applied to the mice were approved and filed with the Animal Ethics Committee of the Third Military Medical University. […] Alternatively, the daily dose for the prophylactic group may be 6.4 mg/kg, and the daily dose for the treatment group may be 12.8 mg/kg. Administration from 3-month old to 9-month old is the prophylactic test, and administration from 9-month old to 12-month old is the therapeutic test After reaching a stated time, the mice in each group received behavioral tests according to the method in the follows. Three mice in each group were taken for Golgi staining. […] The entire process was recorded by video, and analyzed with an image analysis software (ANY-maze, Stoelting). In the platform test, the escape path length and escape latency were measured and calculated. In the probe test, the time in each quadrant and the time across platform were measured. […] In the open field test, the mouse was put in the center of an open field for 3 min, and its path was recorded by a tracking system (Limelight, ActiMetrics). At the same time, the numbers of rearing, grooming, defecation and urination of the mouse were recorded.

LRP = experiment: Western blot of Aβ metabolizing enzymes in brain: LRP; assay type: in vivo; conditions: AD mice brain
Protocol: APPswe/PS1DE9 (AD) transgenic mice were purchased from Jackson Laboratory, USA (No. 005864), raised in the SPF grade animal house of The Third Affiliated Hospital of The Third Military Medical University. All the processes and correlated experiments applied to the mice were approved and filed with the Animal Ethics Committee of the Third Military Medical University. […] Alternatively, the daily dose for the prophylactic group may be 6.4 mg/kg, and the daily dose for the treatment group may be 12.8 mg/kg. […]
The enzymes related with Aβ formation and degradation their molecule levels, the levels of hyperphosphprylated Tau proteins, and the levels of synaptic plasticity correlated proteins were all detected with Western blot. […] The blotting was detected with the following antibodies: APP C terminal antibody (171610, Millipore), BACE1 antibody (Millipore), Aβ antibody (6E10, Abcam), Nepriiysin antibody (Millipore), RAGE antibody (Millipore), LRP antibody (5A6, Calbiochem), IDE antibody (epitomics), phosphorylated Tau protein antibody, including pS396 (Signalway), pT231 (Signalway), pS199 (epitomics), pS262 (Abcam), SNAP25 antibody (Millipore), Synaptophysin antibody (Millipore), Synapsin I antibody (Millipore), VAMP1 antibody (Millipore), PSD95 antibody (Millipore), F-actin antibody (Actin) (Sigma-Aldrich). […]

Gsk-3β = target: T1, Gsk-3β (Mus musculus, UniProt Q9WV60); experiment: Gsk-3β activity in the brain of AD mice; assay type: in vivo
T1 construct: from tissue; host or cells: brain of APPswe/PS1DE9 mice
Protocol: (§2) APPswe/PS1DE9 (AD) transgenic mice were purchased from Jackson Laboratory, USA (No. 005864), raised in the SPF grade animal house of The Third Affiliated Hospital of The Third Military Medical University. All the processes and correlated experiments applied to the mice were approved and filed with the Animal Ethics Committee of the Third Military Medical University. […] Alternatively, the daily dose for the prophylactic group may be 6.4 mg/kg, and the daily dose for the treatment group may be 12.8 mg/kg. Administration from 3-month old to 9-month old is the prophylactic test, and administration from 9-month old to 12-month old is the therapeutic test After reaching a stated time, the mice in each group received behavioral tests according to the method in the follows. Three mice in each group were taken for Golgi staining. The remaining mice were overly anaesthetized to receive brain anatomy. One side of the cerebral hemisphere was frozen and then for a biochemical analysis, and the other side of the cerebral hemisphere was fixed with 4% paraform for a histological analysis.

astrocyte = experiment: Astrocyte reaction immunostaining (GFAP); assay type: in vivo; conditions: AD mice
Protocol: as §2
Immunohistochemistry in the method of bleach section was carried out according to the previous steps. The primary antibodies were rabbit-anti-mouse CD45 antibody (for labelling microglias), rabbit-anti-mouse GFAP (for labelling astrocytes) and rabbit-anti-mouse pSer396-Tau antibody, respectively. […]

Aβ fibers (Aβ 42), sequence (P05067 672-713 limits assumed): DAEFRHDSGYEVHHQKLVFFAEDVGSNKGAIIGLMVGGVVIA
Aβ42, sequence (P05067 672-713 limits assumed): as above
T1 sequence (Q9WV60 whole entry): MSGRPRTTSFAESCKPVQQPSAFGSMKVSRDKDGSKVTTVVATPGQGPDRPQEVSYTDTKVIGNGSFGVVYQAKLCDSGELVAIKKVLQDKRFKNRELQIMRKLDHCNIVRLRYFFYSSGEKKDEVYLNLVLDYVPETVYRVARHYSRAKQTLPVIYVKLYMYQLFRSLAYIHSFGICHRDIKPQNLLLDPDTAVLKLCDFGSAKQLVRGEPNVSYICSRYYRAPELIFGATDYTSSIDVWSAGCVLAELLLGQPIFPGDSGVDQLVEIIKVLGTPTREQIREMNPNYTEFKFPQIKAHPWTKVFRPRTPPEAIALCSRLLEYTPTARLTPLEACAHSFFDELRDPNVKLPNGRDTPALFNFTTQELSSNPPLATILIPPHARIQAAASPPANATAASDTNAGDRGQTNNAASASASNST

CC1=NN(c2ccccc2)C(=O)C1 [Edaravone, 3-methyl-1-phenyl-2-pyrazolin-5-one]
inhibition of Aβ aggregation (thioflavin T) (Aβ42): effectively inhibit Aβ aggregation in a dose-dependent manner
disaggregation of formed Aβ fibers (thioflavin T) (Aβ fibers (Aβ 42)): disaggregate the formed Aβ fibers or larger aggregates effectively
cell survival rate (SH-SY5Y cells [1]): cell survival rate increases significantly
all-trans-Retinoic acid induced neurite length (SH-SY5Y cells [2]): neurite length also increases
Morris water maze escape time [3]: reduction of escape time
Morris water maze times across platform [3]: increase in times across platform
influence on LRP (LRP): no influence
activity of Gsk-3β (Gsk-3β): inhibit the activity of Gsk-3β
astrocyte reaction level in the brain (astrocyte; p.o.): significantly reduced, too
astrocyte reaction in the brain (astrocyte; prophylactic and therapeutic test): all reduced significantly
